# Data published in ChEMBL document CHEMBL5247592, “Discovery of novel VEGFR-2-PROTAC degraders based on the localization of lysine residues via recruiting VHL for the treatment of gastric cancer” (Eur J Med Chem, 2022).
# The source made the active and inactive calls. The calls are words filed in the database; no cut-off is given here.
# Tests used:
# HGC-27 [1] = assay: Antiproliferative activity against human HGC-27 cells assessed as inhibition of cell growth incubated for 72 hrs by MTT assay; type: functional, cell-based; settings: HGC-27, 72 h
# [2] = target: T1, von Hippel-Lindau disease tumor suppressor/Vascular endothelial growth factor receptor 2 (Homo sapiens, UniProt P35968+P40337); assay: PROTAC activity at VHL/VEGFR2 in human HGC-27 cells assessed as reduction in VEGFR2 protein level by measuring maximal efficacy at 0.15 uM incubated for 24 hrs by Western blot analysis relative to control; type: cell-based
# Target sequence in this assay (P35968 20-1356 limits assumed): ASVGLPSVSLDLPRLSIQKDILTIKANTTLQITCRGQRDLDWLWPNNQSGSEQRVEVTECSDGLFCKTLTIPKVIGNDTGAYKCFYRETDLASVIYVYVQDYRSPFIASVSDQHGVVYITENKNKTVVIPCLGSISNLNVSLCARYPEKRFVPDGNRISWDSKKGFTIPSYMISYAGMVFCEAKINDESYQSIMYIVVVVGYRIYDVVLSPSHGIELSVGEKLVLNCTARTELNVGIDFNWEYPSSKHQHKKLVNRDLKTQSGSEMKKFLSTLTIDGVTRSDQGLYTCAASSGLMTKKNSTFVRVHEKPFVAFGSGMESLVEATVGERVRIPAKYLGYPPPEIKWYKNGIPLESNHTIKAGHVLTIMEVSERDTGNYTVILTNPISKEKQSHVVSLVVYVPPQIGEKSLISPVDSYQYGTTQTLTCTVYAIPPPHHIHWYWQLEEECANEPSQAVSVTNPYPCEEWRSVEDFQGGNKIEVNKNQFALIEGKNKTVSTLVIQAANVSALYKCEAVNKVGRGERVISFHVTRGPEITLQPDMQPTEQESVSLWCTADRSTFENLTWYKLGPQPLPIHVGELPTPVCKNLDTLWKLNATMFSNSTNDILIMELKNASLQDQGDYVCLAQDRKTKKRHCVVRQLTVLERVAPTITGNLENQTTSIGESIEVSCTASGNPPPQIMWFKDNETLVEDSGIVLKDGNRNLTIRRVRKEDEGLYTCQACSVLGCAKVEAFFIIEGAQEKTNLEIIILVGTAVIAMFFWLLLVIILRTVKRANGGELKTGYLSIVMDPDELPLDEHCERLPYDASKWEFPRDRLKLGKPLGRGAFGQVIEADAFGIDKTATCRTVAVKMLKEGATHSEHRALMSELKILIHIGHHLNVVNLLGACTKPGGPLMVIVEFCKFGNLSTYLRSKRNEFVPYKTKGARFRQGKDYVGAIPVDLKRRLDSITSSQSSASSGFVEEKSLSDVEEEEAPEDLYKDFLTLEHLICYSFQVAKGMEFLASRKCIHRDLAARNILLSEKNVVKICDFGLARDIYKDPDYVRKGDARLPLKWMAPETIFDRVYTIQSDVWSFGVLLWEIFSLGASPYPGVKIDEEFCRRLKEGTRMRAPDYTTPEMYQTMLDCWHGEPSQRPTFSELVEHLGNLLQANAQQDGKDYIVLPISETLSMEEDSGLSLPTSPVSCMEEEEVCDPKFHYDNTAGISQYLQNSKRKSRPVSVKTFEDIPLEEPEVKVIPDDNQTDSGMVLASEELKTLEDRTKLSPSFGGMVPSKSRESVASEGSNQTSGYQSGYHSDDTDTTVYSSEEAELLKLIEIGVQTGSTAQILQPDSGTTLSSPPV
# Target sequence in this assay (P40337 whole entry partner): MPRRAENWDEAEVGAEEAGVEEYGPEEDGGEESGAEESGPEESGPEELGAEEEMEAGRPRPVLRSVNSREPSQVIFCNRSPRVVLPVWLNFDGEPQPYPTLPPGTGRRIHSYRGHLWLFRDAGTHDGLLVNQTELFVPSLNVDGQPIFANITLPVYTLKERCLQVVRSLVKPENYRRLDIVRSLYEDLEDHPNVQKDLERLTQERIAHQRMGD
# [3] = target: T1, von Hippel-Lindau disease tumor suppressor/Vascular endothelial growth factor receptor 2; assay: PROTAC activity at VHL/VEGFR2 in human HGC-27 cells assessed as reduction in VEGFR2 protein level incubated for 24 hrs by Western blot analysis; type: cell-based
# Target sequence in this assay (P35968 whole entry): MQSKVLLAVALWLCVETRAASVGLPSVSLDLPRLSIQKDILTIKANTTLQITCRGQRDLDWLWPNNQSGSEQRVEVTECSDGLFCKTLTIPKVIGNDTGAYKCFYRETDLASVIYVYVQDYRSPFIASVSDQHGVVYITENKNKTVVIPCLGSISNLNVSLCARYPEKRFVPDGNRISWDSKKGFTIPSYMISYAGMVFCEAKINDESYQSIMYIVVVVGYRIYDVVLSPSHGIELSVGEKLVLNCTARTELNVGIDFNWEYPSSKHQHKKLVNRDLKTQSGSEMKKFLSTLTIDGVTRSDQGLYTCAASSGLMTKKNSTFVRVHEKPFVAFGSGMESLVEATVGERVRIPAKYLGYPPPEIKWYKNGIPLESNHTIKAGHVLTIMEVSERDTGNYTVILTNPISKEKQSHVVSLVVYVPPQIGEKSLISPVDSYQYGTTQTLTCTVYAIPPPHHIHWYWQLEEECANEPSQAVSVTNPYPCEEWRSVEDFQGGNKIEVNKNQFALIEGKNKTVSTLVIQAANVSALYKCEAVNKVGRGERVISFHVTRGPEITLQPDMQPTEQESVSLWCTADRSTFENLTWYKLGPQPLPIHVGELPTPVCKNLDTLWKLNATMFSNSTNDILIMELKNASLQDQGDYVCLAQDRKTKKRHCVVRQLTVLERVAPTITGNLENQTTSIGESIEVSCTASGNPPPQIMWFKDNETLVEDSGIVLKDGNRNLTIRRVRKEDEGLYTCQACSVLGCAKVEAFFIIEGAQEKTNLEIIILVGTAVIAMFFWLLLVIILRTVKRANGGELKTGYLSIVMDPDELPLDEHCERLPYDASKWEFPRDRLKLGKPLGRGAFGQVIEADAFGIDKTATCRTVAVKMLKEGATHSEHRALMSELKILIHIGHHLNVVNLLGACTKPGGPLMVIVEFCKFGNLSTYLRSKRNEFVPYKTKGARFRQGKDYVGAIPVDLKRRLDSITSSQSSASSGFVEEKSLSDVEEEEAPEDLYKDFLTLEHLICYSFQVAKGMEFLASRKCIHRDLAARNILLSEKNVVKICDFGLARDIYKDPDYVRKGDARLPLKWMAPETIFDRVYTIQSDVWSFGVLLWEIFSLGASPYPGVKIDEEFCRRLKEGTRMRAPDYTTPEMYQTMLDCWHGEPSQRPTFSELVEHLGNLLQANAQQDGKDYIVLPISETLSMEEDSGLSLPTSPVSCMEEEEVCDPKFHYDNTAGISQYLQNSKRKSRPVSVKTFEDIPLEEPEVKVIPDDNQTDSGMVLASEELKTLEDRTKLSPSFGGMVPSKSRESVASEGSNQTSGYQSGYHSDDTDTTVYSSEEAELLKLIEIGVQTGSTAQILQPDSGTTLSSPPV
# Target sequence in this assay (P40337 whole entry): as the sequence (P40337 whole entry partner) above
# [4] = target: T1, von Hippel-Lindau disease tumor suppressor/Vascular endothelial growth factor receptor 2; assay: PROTAC activity at VHL/VEGFR2 in HUVEC cells assessed as reduction in VEGFR2 protein level by measuring maximal efficacy at 0.007 to 10 uM incubated for 24 hrs by Western blot analysis relative to control; type: cell-based; settings: dose 0.007-10 µM
# Target sequence in this assay (P35968 20-1356 limits assumed): as the sequence (P35968 20-1356 limits assumed) above
# Target sequence in this assay (P40337 whole entry partner): as the sequence (P40337 whole entry partner) above
# [5] = target: T1, von Hippel-Lindau disease tumor suppressor/Vascular endothelial growth factor receptor 2; assay: PROTAC activity at VHL/VEGFR2 in HUVEC cells assessed as reduction in VEGFR2 protein level at 10 uM incubated for 24 hrs by Western blot analysis; type: cell-based
# Target sequence in this assay (P35968 20-1356 limits assumed): as the sequence (P35968 20-1356 limits assumed) above
# Target sequence in this assay (P40337 whole entry partner): as the sequence (P40337 whole entry partner) above
# [6] = target: T1, von Hippel-Lindau disease tumor suppressor/Vascular endothelial growth factor receptor 2; assay: PROTAC activity at VHL/VEGFR2 in human HGC-27 cells assessed as reduction in VEGFR2 protein level at 1 uM by Western blot analysis; type: cell-based; settings: time 12-36 hrs, TDE = time-dependent effect
# Target sequence in this assay (P35968 20-1356 limits assumed): as the sequence (P35968 20-1356 limits assumed) above
# Target sequence in this assay (P40337 whole entry partner): as the sequence (P40337 whole entry partner) above
# [7] = target: T1, von Hippel-Lindau disease tumor suppressor/Vascular endothelial growth factor receptor 2; assay: PROTAC activity at VHL/VEGFR2 in human HGC-27 cells assessed as induction of VEGFR2 degradation at 1 uM measured after 24 hrs by Western blot analysis relative to control; type: cell-based
# Target sequence in this assay (P35968 20-1356 limits assumed): as the sequence (P35968 20-1356 limits assumed) above
# Target sequence in this assay (P40337 whole entry partner): as the sequence (P40337 whole entry partner) above
# [8] = target: T1, von Hippel-Lindau disease tumor suppressor/Vascular endothelial growth factor receptor 2; assay: PROTAC activity at VHL/VEGFR2 in human HGC-27 cells assessed as residual activity by measuring VEGFR2 expression level at 1 uM incubated for 24 hrs followed by compound washout and measured after 4 hrs by Western blot analysis relative to control; type: cell-based
# Target sequence in this assay (P35968 20-1356 limits assumed): as the sequence (P35968 20-1356 limits assumed) above
# Target sequence in this assay (P40337 whole entry partner): as the sequence (P40337 whole entry partner) above
# [9] = target: T1, von Hippel-Lindau disease tumor suppressor/Vascular endothelial growth factor receptor 2; assay: PROTAC activity at VHL/VEGFR2 in human HGC-27 cells assessed as induction of VEGRF2 protein degradation at 1 uM preincubated with 4-Amino-N-(6-(1-(2-((4-methyl-3-(trifluoromethyl)phenyl)amino)-2-oxoethyl)-1H-pyrazol-4-y1)-1H-indazol-3-Abenzamide for 2 hrs followed by compound addition and measured after 24 hrs by Western blot analysis; type: cell-based
# [10] = target: T1, von Hippel-Lindau disease tumor suppressor/Vascular endothelial growth factor receptor 2; assay: PROTAC activity at VHL/VEGFR2 in human HGC-27 cells assessed as reduction in relative VEGRF2 expression level at 1 uM preincubated with VH032 for 2 hrs followed by compound addition and measured after 24 hrs by Western blot analysis; type: cell-based
# [11] = target: T1, von Hippel-Lindau disease tumor suppressor/Vascular endothelial growth factor receptor 2; assay: PROTAC activity at VHL/VEGFR2 in human HGC-27 cells assessed as reduction in relative VEGRF2 expression level at 1 uM preincubated with MG-132 for 2 hrs followed by compound addition and measured after 24 hrs by Western blot analysis; type: cell-based
# [12] = target: T1, von Hippel-Lindau disease tumor suppressor/Vascular endothelial growth factor receptor 2; assay: PROTAC activity at VHL/VEGFR2 in human HGC-27 cells assessed as half-life of intracellular VEGFR2 protein […] at 1 uM measured upto 24 hrs in the presence of cycloheximide by Western blot analysis (reference value: 5.45 hrs); type: cell-based
# HGC-27 [13] = assay: Inhibition of colony formation in human HGC-27 cells at 1 to 3.33 uM incubated for 8 days by crystal violet staining based analysis relative to control; type: functional; settings: dose 1-3.33 µM, time 8 day
# HGC-27 [14] = assay: Inhibition of cell migration in human HGC-27 cells measured upto 24 hrs by wound healing assay; type: functional, cell-based; settings: dose 0.033-3.33 µM
# HGC-27 [15] = assay: Inhibition of cell migration in human HGC-27 cells assessed as suppression of cell migration at 1 uM incubated for 24 hrs by wound healing assay relative to control; type: functional
# HGC-27 [16] = assay: Antiinvasive activity in human HGC-27 cells assessed as reduction in number of invasive cells at 0.033 uM incubated for 24 hrs by transwell invasion assay (reference value: 118); type: functional
# HGC-27 [17] = assay: Antiinvasive activity in human HGC-27 cells assessed as reduction in number of invasive cells at 0.33 uM incubated for 24 hrs by transwell invasion assay (reference value: 118); type: functional
# HGC-27 [18] = assay: Antiinvasive activity in human HGC-27 cells assessed as reduction in number of invasive cells at 3.33 uM incubated for 24 hrs by transwell invasion assay (reference value: 118); type: functional
# HGC-27 [19] = assay: Induction of apoptosis in human HGC-27 cells assessed as late apoptotic cells at 0.033 uM incubated for 24 hrs by Annexin V-FITC/PI staining based analysis (reference value: 3%); type: functional
# HGC-27 [20] = assay: Induction of apoptosis in human HGC-27 cells assessed as necrotic cells at 0.033 uM incubated for 24 hrs by Annexin V-FITC/PI staining based analysis (reference value: 0.65 %); type: functional
# HGC-27 [21] = assay: Induction of apoptosis in human HGC-27 cells assessed as viable cells at 0.1 uM incubated for 24 hrs by Annexin V-FITC/PI staining based analysis (reference value: 95.3%); type: functional; settings: read-out: Activity
# HGC-27 [22] = assay: Induction of apoptosis in human HGC-27 cells assessed as viable cells at 0.33 uM incubated for 24 hrs by Annexin V-FITC/PI staining based analysis (reference value: 95.3%); type: functional; settings: read-out: Activity
# HGC-27 [23] = assay: Induction of apoptosis in human HGC-27 cells assessed as late apoptotic cells at 0.33 uM incubated for 24 hrs by Annexin V-FITC/PI staining based analysis (reference value: 3%); type: functional
# HGC-27 [24] = assay: Induction of apoptosis in human HGC-27 cells assessed as viable cells at 3.3 uM incubated for 24 hrs by Annexin V-FITC/PI staining based analysis (reference value: 95.3%); type: functional; settings: read-out: Activity
# HGC-27 [25] = assay: Induction of apoptosis in human HGC-27 cells assessed as late apoptotic cells at 3.3 uM incubated for 24 hrs by Annexin V-FITC/PI staining based analysis (reference value: 3%); type: functional
# HGC-27 [26] = assay: Induction of cell cycle arrest in human HGC-27 cells assessed as S phase cells at 0.033 uM incubated for 24 hrs by PI staining based flow cytometric analysis (reference value: 26.4%); type: functional
# HGC-27 [27] = assay: Induction of cell cycle arrest in human HGC-27 cells assessed as G2/M phase cells at 0.033 uM incubated for 24 hrs by PI staining based flow cytometric analysis (reference value: 13.3%); type: functional
# HGC-27 [28] = assay: Induction of cell cycle arrest in human HGC-27 cells assessed as G0/G1 phase cells at 0.1 uM incubated for 24 hrs by PI staining based flow cytometric analysis (reference value: 47.4%); type: functional
# HGC-27 [29] = assay: Induction of cell cycle arrest in human HGC-27 cells assessed as G0/G1 phase cells at 1 uM incubated for 24 hrs by PI staining based flow cytometric analysis (reference value: 47.4%); type: functional
# HGC-27 [30] = assay: Induction of cell cycle arrest in human HGC-27 cells assessed as S phase cells at 1 uM incubated for 24 hrs by PI staining based flow cytometric analysis (reference value: 26.4%); type: functional
# HGC-27 [31] = assay: Induction of cell cycle arrest in human HGC-27 cells assessed as S phase cells at 3.33 uM incubated for 24 hrs by PI staining based flow cytometric analysis (reference value: 26.4%); type: functional
smiles,measurement,setting,value
Cc1ccc(NC(=O)Cn2cc(-c3ccc4c(NC(=O)c5ccc(NC(=O)CCCCCCCCC(=O)N[C@H](C(=O)N6C[C@H](O)C[C@H]6C(=O)NCc6ccc(-c7scnc7C)cc6)C(C)(C)C)cc5)n[nH]c4c3)cn2)cc1C(F)(F)F,IC50,HGC-27 [1],2030 nM
same,Emax,[2],73.7%
same,EC50,[3],84 nM
same,Emax,[4],76.6%
same,Activity,[5],inactive
same,Activity,[6],Tde
same,Activity,[7],51.4%
same,Activity,[8],32.8%
same,Activity,[9],inactive
same,Activity,[10],inactive
same,Activity,[11],inactive
same,T1/2,[12],5.45 h
same,inhibition (INH),HGC-27 [13],100%
same,inhibition,HGC-27 [14],Dose-Dependent Effect
same,inhibition at 1 µM,HGC-27 [15],21.2%
same,Activity,HGC-27 [16],116
same,Activity,HGC-27 [17],36
same,Activity,HGC-27 [18],4
same,Activity,HGC-27 [19],3%
same,Activity,HGC-27 [20],0.32%
same,viability at 0.1 µM,HGC-27 [21],92.1%
same,viability at 0.33 µM,HGC-27 [22],89.1%
same,Activity,HGC-27 [23],6.7%
same,viability at 3.3 µM,HGC-27 [24],54%
same,Activity,HGC-27 [25],30.5%
same,Activity,HGC-27 [26],27.9%
same,Activity,HGC-27 [27],15.7%
same,Activity,HGC-27 [28],44.3%
same,Activity,HGC-27 [29],12.5%
same,Activity,HGC-27 [30],28.5%
same,Activity,HGC-27 [31],21.2%
